For data set [1], the system named is cultured hippocampal neurons. The note with it: 10 μM, 12 hr pre-treatment. On the procedure: Cultured hippocampal neurons were prepared and plated on 96 well plates. […] Cellular viability was measured using CellTiter-Blue® (Promega Corp., Madison, Wis.) in black-walled optical imaging multiwell plates, and cellular ATP was measured using the CellTiter-Glo® (Promega Corp., Madison, Wis.) luminescence assay in opaque-walled multiwell plates according to the manufacturer's protocol.

For data set [2] the following is noted: doses that should produce pharmacodynamically effective CNS concentrations; cited from earlier work.
Data set [3] has as its target leak conductance of SMVs enriched in F1FO ATP synthase (complex V) (Rattus norvegicus, UniProt P19511+Q06647). The data set is described as follows: biochemical. On the procedure:
Reagents were rapidly perfused into the recording chamber.
(§1) Giga-ohm seals were formed on SMVs using pipettes and solutions as above. Peak membrane conductance was measured as described above.

Data set [4] concerns leak conductance of urea-treated SMVs. The data set is described as follows: Patch clamp recordings of urea-treated SMVs (F1 removed). It is filed as biochemical, rat. On the procedure:
F1 subunits were removed from SMVs by adapting previously-established methods. 60 mg SMV's/1 mL IB was treated with 1 mL of […] for 5 min. on ice, then centrifuged at 21000×g for 10 min. The pellet was washed 3× in IB (centrifugation at 21000×g for 10 min) and stored in IB.
as §1

The next data set deals with citrate synthase. The note with it: dexpramipexole 30 μM. On the procedure:
(§2) Primary rat cortical cultures were incubated with digitonin (10 μg/ml) and rotenone (100 nM) for 45 minutes in MAS1 buffer prior to measurement of oxygen consumption rate (OCR) by a Seahorse® flux analyzer. […] Data are shown as a percentage of the control group OCR±SEM.

The test system of data set [5] is SH-SY5Y neuroblastoma cells. The data set is described as follows: PSI-induced cell death in SH-SY5Y cells (CellTiter-Blue). The protocol:
Data shown represent mean±SEM. […] Bar graphs represent normalized mean±SEM. Cell viability was measured by CellTiter-Blue®; n=41-98 wells/condition.
(§3) Undifferentiated SH-SY5Y human neuroblastoma cells (ATCC, Manasses, Va.) were maintained in humidified 5% CO2 in 1:1 Ham's F12 nutrient mixture with Glutamax® and Minimal Essential Medium with L-glutamine (MEM-Alpha), 10% FBS, and 1% penicillin/streptomycin (Gibco® Invitrogen Corp., Carlsbad, Calif.).
(§4) Cellular viability was measured using CellTiter-Blue® (Promega Corp., Madison, Wis.) in black-walled optical imaging multiwell plates, and cellular ATP was measured using the CellTiter-Glo® (Promega Corp., Madison, Wis.) luminescence assay in opaque-walled multiwell plates according to the manufacturer's protocol.
A general note: Alamar Blue is a resazurin reagent that responds to reducing activity.

The target of data set [6] is ATP synthesis in liver mitochondria (Rattus norvegicus, UniProt P19511+Q06647). On the procedure:
Synthesis of ATP in liver mitochondria was measured using an ATP determination kit (A-22066; Molecular Probes, Eugene, Oreg.), supplemented with 1 mM sodium succinate and 500 nM rotenone. Assays were performed in 96-well microplates (Becton Dickinson, Franklin Lakes, N.J.) in a final volume of […] consisting of 10 μL mitochondria (0.1 mg protein/ml final concentration), 10 μL of drug or control buffer and 90 μL ATP-determination reaction mixture. After a 5 min. recording of basal luciferase-generated luminescence, ADP (final concentration, 10 μM, 10 μL) was injected into each well. Luminescence was recorded every 6 sec for 15-20 min.

The test system of data set [7] is SH-SY5Y neuroblastoma cells. To be noted: 30 μM. The protocol:
as §3
(§5) OCR and ECAR were measured with a Seahorse® XF24 Flux Analyzer (Seahorse Bioscience, Billerica, Mass.). For PSI experiments on C2C12 cells, basal values were assessed in non-buffered DMEM Assay Medium without glucose, glutamine or pyruvate, and supplemented with 25 mM glucose, 6 mM Glutamax®, and 1 mM sodium pyruvate. […] Succinate and ADP stocks were diluted to 10× concentrations in pre-warmed XF MAS buffer, pH 7.2. Using a Plate Prep Station (Seahorse Bioscience, Billerica, Mass.), cells were washed with 1 mL buffer and were brought to 607 μL with buffer. […] Raw basal OCR and ECAR values were normalized as a percent of the mean control value for each individual experiment. Normalized data from experiments were expressed as mean±SEM.

The subject of data set [8] is digitonin-permeabilized cultured cortical neurons. On the procedure: as §2
Primary cultures of cortical neurons were prepared as described previously, plated at 8×10^5 cells/well for Seahorse XF24 experiments and grown in Neurobasal A supplemented with B27, 1 mM glutamine and penicillin/streptomycin for […] in vitro (DIV). On DIV 7, media without antibiotics was substituted. The cultures were used on DIV 9-10.
as §5

For another data set, the system named is C2C12 cells. The note with it: mouse, 18 h, 30 µM. The protocol:
Data are presented as a percentage of the vehicle-treated control ±SEM (n=10 wells at each concentration). […] Experiments commenced 18 hr. after addition of drug. […] Data are presented as a percentage of the vehicle-treated control±SEM (n=14-17 wells for each group).
The C2C12 mouse myoblast cell line (ATCC, Manasses, Va.) was cultured in Dulbecco's Modified Eagle Medium (DMEM; Gibco®; Carlsbad, Calif.) supplemented with 10% fetal bovine serum (FBS), 2 mM GlutaMax® and penicillin/streptomycin. Cells were maintained in 10% CO2 humidified at 37° C.
as §4

The subject of data set [9] is SH-SY5Y neuroblastoma cells. The note with it: 1-100 μM; 24 hr. The protocol: as §3, §4
For data set [10], the target named is human F1FO ATP synthase OSCP subunit (Homo sapiens, UniProt P48047). To be noted: co-incubation in 'cold' dexpramipexole (100 μM).
Chain of human F1FO ATP synthase OSCP subunit (P48047 24-213): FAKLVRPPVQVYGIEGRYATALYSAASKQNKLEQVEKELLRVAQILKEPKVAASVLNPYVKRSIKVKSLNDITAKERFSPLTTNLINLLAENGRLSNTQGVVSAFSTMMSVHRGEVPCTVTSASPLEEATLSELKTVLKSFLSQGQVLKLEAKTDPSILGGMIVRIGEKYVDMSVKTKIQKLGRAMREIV
Description: The human ORF constructs for alpha, beta, b, c, delta, d, epsilon, gamma and OSCP ATP synthase subunits, tagged with Myc and DDK (Flag) tags were from Origene Technologies (Rockville, Md.). 293T cells were transfected with the above constructs, using the calcium phosphate method (Li et al. 2008). On day-3 post transfection, the cells were lysed and the fusion proteins were bound to the EZview™ Red ANTI-FLAG® M2 Affinity Gel (Sigma, USA), according to the manufacturer's protocol. The proteins were eluted from a portion of the samples and presence of the proteins on the beads was verified by immunoblot analysis, using the mouse anti-Myc antibodyies (Cell signaling Technology). […] They were spun at 3000×g in 0.45 um Spin-X centrifugal devices (Corning Life Sciences, USA) for 10 min. The samples were washed three times with PBS and the filter units were incubated in Ultima Gold scintillation liquid (Perkin Elmer Health Sciences, Inc.) overnight. Samples were counted for ^14C, using a Beckman Coulter LS 5000TD scintillation counter.
Data set [11] relates to models of cell death and NDDs. The note with it: compared with pramipexole; cited from earlier work.
Data set [12] deals with digitonin-treated cortical neurons. The data set is described as follows: ATP production following ADP pulse in digitonin-treated cortical neurons. It is filed as cell-based, rat. The note with it: dexpramipexole 30 μM.
The next data set addresses complex V (F1FO ATPase) (Rattus norvegicus, UniProt P19511+Q06647). The note with it: concentration-dependent. On the procedure:
ATP hydrolysis was also measured using an NADH-ATP-synthase kit (Mitosciences, USA; catalog #MS541), according to the manufacturer's protocol with modifications. SMVs were added 20 min. prior to addition of the reagent mix. The rate of change in […] over time as NADH was oxidized was measured as a decrease in absorbance at 340 nm.

[13] abbreviates: 30 μM applied 1 hr prior to recording.

Usually EC50 stands for the concentration needed to bring the measured effect to its halfway point.

“Also recorded” adds a separate entry of the source. Bounds are passed on as bounds.

Chain of ATP synthesis in liver mitochondria (P19511 43-256): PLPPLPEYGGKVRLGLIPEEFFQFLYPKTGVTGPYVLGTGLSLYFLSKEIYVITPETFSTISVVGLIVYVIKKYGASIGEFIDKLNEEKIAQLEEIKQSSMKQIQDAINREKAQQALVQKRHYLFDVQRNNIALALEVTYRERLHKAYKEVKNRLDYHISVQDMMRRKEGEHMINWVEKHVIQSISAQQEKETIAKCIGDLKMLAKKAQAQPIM
Chain of ATP synthesis in liver mitochondria (Q06647 24-213): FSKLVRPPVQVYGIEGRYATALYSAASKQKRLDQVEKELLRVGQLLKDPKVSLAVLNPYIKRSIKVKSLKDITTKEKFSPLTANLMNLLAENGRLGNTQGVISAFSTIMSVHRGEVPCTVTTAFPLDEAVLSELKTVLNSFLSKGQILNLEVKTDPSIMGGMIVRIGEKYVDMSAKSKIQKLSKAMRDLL
Chain of ATP synthesis in liver mitochondria (P10719 47-529 partner): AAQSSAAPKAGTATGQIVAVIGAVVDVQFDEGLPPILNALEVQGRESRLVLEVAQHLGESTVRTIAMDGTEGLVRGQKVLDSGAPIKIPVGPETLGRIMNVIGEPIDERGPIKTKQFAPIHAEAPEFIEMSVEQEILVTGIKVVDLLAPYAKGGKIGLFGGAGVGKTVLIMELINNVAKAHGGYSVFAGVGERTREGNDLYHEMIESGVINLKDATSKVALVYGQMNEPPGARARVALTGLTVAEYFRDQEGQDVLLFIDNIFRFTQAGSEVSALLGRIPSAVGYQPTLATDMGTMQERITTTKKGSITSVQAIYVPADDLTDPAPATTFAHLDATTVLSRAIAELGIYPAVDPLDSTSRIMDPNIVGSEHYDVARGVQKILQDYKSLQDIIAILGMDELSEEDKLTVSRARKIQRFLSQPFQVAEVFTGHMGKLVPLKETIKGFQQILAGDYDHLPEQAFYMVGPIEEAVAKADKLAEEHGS
Chain of ATP synthesis in liver mitochondria (P15999 44-553 partner): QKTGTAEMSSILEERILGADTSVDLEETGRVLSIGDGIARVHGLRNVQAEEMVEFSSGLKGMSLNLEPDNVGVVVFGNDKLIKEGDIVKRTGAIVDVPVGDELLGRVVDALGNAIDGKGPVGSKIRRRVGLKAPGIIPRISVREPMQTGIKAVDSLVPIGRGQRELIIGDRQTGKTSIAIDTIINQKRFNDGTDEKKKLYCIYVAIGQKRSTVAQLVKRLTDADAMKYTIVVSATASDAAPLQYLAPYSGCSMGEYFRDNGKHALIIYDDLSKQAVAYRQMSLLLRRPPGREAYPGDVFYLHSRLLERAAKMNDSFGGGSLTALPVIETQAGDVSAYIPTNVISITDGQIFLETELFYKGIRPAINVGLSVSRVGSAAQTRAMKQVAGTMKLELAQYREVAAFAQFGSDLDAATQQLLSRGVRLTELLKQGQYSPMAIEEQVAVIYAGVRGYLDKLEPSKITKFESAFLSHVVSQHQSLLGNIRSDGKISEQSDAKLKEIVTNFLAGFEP
Chain of ATP synthesis in liver mitochondria (P35435 whole entry partner): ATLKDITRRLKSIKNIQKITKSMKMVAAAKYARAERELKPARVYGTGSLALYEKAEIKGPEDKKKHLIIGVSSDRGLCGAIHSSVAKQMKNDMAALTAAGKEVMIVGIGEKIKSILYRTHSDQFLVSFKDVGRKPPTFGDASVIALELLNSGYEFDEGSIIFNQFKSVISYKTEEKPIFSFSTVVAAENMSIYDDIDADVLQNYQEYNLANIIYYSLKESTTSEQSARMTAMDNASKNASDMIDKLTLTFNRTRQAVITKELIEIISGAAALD

On to `CCCN[C@@H]1CCc2nc(N)sc2C1` [dexpramipexole, (6R)-4,5,6,7-tetrahydro-N-6-propyl-2,6-benzothiazole-diamine], for which the “increase in ATP levels compared to vehicle-treated cultures” value in data set [1] is 11%. Also, the safety and tolerability result in data set [2] is “safe and well-tolerated”. The same compound came in with a concentration for a half-maximal effect (EC50) in data set [3] of 111 nM. The “currents in SMVs” value in data set [3] (high [Ca^2+], 2 μM dexpramipexole, 1.0 μM CSA) is given as “inhibited”. Besides, the “leak conductance after removal of F1” value in data set [4] is given as “no longer inhibited the conductance”. Further, the “levels of citrate synthase” value in the data set on citrate synthase is “unchanged”. Moreover, the cytoprotective concentrations in data set [5] is not below 10 µM. The “protection against PSI-induced cell death” value in [5] (pretreatment with dexpramipexole) is listed as “protective; also recorded: inhibited PSI-induced cell death in a concentration-dependent manner”. Moreover, the “Hill slope of CRC” value in data set [6] was less than 1. In data set [7], the “basal oxygen consumption rate (OCR)” value is “modestly decreased”. In data set [8] (setting [13]), the “OCR during succinate incubation” value was “lower OCR” and the “OCR following an ADP pulse” value is on record as “significantly lower OCR”. In addition, in data set [8] (acute application 30 μM), the “increase in OCR produced by succinate and following the ADP pulse” value was “less than in control cells”. In data set [8] (acute application 30 μM, rotenone), the basal respiration entry is given as “did not affect”. Moreover, the cell viability result in the data set on C2C12 cells is on record as “neither ATP levels nor cell viability (FIG. 5b) were significantly affected”. In addition, the “maximal group increases in ATP levels relative to control” value in data set [9] is approximately 18%. In addition, the “competition of ^14C-dexpramipexole binding to OSCP subunit” value in data set [10] was “significantly reduced binding”. Further, in data set [11], the protection entry was “equally protective”. For the same compound, in data set [12], the “initial slope of ATP synthesis following an ADP pulse” value is “unchanged” and the “maximal ATP levels” value was “unchanged”. In addition, the “ATP hydrolysis (change in NADH signal)” value at complex V (F1FO ATPase) is reported as “significantly enhanced ATP hydrolysis”.

Values taken from patent US20130273557A1 (priority 2010, published 2013).
